{"source": "patent US10426736B2", "about": "“Delivering functional nucleic acids to mammalian cells via bacterially-derived, intact minicells” (EnGenelC Molecular Delivery Pty. Ltd., priority 2004, dated 2019)", "key": {"[1]": {"tested_on": "human breast adenocarcinoma cell line, MDA-MB-468", "assay": "Doxorubicin sensitivity of MDA-MB-468 cell line", "assay_type": "cell-based", "details": "parental MDA-MB-468"}, "[2]": {"tested_on": "Human colon cancer cell line Caco-2", "assay": "MTT cell proliferation assay, reversal of drug resistance in-vitro", "details": "single treatment; 72 hrs; free drugs 25 μM; MTT read at 490 nm", "protocol": "Caco-2 cells were seeded at 3×10^6 cells/flask in Minimum Essential Medium with 10% cosmic calf serum and incubated for 3 hours at 37° C., 5% CO2.\nThe cells were treated with (a) ^EGFRminicellsshRNA-MDR-1, and (b) ^EGFRminicellsshRNA-nonsense. […] Minicells were added at a concentration of 10^10 per flask and all flasks were incubated for 72 hrs. The cells from each treatment were trypsinised and seeded at 1×10^4 cells/ml/well in 24-well plates and were incubated for 3 hrs at 37° C., 5% CO2. The control untreated cells were then incubated with (6 wells/treatment) (a) free irinotecan (25 μM), (b) free 5-FU (25 μM), (c) ^EGFRminicellsIrino, and (d) ^EGFRminicells5-FU.\nThe ^EGFRminicellsshRNA-MDR-1 treated Caco-2 cells were incubated with (6 wells/treatment) (a) ^CMV minicells5-FU (non-specifically targeted since the bispecific antibody is targeted to a surface protein on cytomegalovirus), (b) free irinotecan, (c) free 5-FU EGFR, (d) ^EGFRminicellsIrino, and (e) ^EGFRminicells5-FU. […]\nAll cells were incubated for a further 72 hrs followed by the colorimetric MTT cell proliferation assay (Cory et al., 1991) using the CellTiter 96 AQueous One Solution Cell Proliferation Assay (Promega Corp., Madison, Wis., USA), according to the manufacturer's instructions. The colorimetric measurements were read at 490 nm."}, "[3]": {"tested_on": "Caco-2 cell xenograft", "assay": "Dosing schedule time-course, Caco-2 xenograft, irinotecan (Example 6)", "assay_type": "in vivo, nude mice", "details": "free drug, ~2.4×10^5 ng/dose, intravenous", "description": "Allowing sufficient time for efficient delivery of shRNA to the tumor cells before the receptor-targeted, drug-packaged minicells are administered improves the results. A time-course experiment was performed, wherein ^EGFRminicellsshRNA-MDR-1 were administered intravenously in nude mice carrying Caco-2 cell xenograft. In separate groups (n=11 mice per group), mice were given ^EGFRminicellsIrino either at 96 hr (G3), 120 hr (G4) or 144 hr (G5) after the ^EGFRminicellsshRNA-MDR-1 treatment. G1 and G2 were tumor only and free irinotecan (˜2.4×10^5 ng/dose) controls. The minicells were administered at 5×10^8 per dose and each dose carried ˜80 ng of irinotecan packaged in minicells, which is a 3,000-fold lower dose than that administered as free drug."}, "[4]": {"tested_on": "Caco-2 cell xenograft", "assay": "Dosing schedule time-course, Caco-2 xenograft, 5-FU (Example 7)", "assay_type": "in vivo, nude mice", "details": "free drug, 1×10^6 ng/dose, intravenous", "description": "The experiment described in example 6 was repeated with the same controls and experimental groups except that G2 received free 5-FU (1×10^6 ng/dose) and in G3, G4 and G5, the second treatment was carried out with ^EGFRminicells5-FU. Minicells were administered at 1×10^9 per dose and each dose carried ˜80 ng 5-FU, i.e., ˜12,500-fold lower than free drug administration in G2 mice."}}, "data": [{"molecule": "COc1cccc2c1C(=O)c1c(O)c3c(c(O)c1C2=O)C[C@@](O)(C(=O)CO)C[C@@H]3O[C@H]1C[C@H](N)[C@H](O)[C@H](C)O1", "note": "[doxorubicin]", "values": [{"measurement": "sensitivity of cell line to drug", "setting": "[1]", "value": "highly sensitive"}]}, {"molecule": "CCc1c2c(nc3ccc(OC(=O)N4CCC(N5CCCCC5)CC4)cc13)-c1cc3c(c(=O)n1C2)COC(=O)[C@]3(O)CC", "note": "[irinotecan]", "values": [{"measurement": "resistance of Caco-2 cells to treatment (cell viability, FIG. 1)", "setting": "[2]", "value": "highly resistant"}, {"measurement": "effect on tumor growth (FIG. 5)", "setting": "[3]", "value": "no effect"}]}, {"molecule": "O=c1[nH]cc(F)c(=O)[nH]1", "note": "[5-FU, 5-fluorouracil]", "values": [{"measurement": "effect on tumor growth (FIG. 6)", "setting": "[4]", "value": "no effect"}]}]}
